We go through 3 compounds from article PMC10791743, “Selective CK1α degraders exert antiproliferative activity against a broad range of human cancer cell lines” (Nature Communications, 2024).

In one assay the target is T1, IKZF1 (Homo sapiens, UniProt Q13422+Q96SW2).
T1 construct: engineered by CRISPR/Cas9 to express endogenous IKZF1 (Jurkat cells) with a HiBiT tag
The assay is described as follows: IKZF1 HiBiT live-cell kinetic degradation assay (Jurkat cells). In kind it is cell-based. The source says:
To measure cellular protein levels, we used cell lines that have been engineered by CRISPR/Cas9 to express endogenous CK1α (HEK293 cells) or IKZF1 (Jurkat cells) with a HiBiT tag, which when coupled with LgBiT expression forms NanoBiT, a bioluminescent protein that can be used for kinetic studies of protein degradation. […] Cell viability was also monitored with CellTiter Glo 2.0 (Promega) at the completion of the experiment to ensure that loss of protein was not a consequence of a loss of cell viability.
IKZF1-HiBiT Jurkat LgBiT stable cells were seeded at 60,000 cells/well in 50% growth media/50% CO2 independent medium supplemented with 10% FBS and 1× Endurazine substrate. […] A dose–response curve was generated by performing 3-fold dilutions of each compound including a DMSO-only control in growth media. For live cell kinetic degradation assays, diluted compounds were added to CK1α and β-catenin plates and placed in a GloMax Discover (Promega, Cat. #GM3000) preheated to 37 °C or added to IKZF1 plates and placed in a CLARIOstar Plus (BMG LABTECH) preheated to 37 °C.
Relative protein level was determined based on normalization to the DMSO control and reported at Fractional RLUs. Degradation rate and degradation maximums were calculated from Fractional RLUs as previously described[38] using GraphPad Prism software. β-catenin stabilization time of onset for each concentration curve was calculated in GraphPad Prism by fitting an unconstrained plateau followed by one phase association model using the equation below (Y = IF(X < X0, Y0,Y0+(Plateau−Y0)*(1−exp(−K*(X−X0))))). The parameter, X0 was used as time of onset for each compound concentration.
Background: HiBiT is a short tag that completes a luciferase, so light tracks the accessible tagged protein.

In the next assay the test system is CRBN−/− MOLM-13 cells. Put plainly: Annexin-V staining for apoptosis, CRBN−/− MOLM-13. The format is cell-based, human. The settings on record: for Effect on viability of CRBN−/− cells (annexin-V): 1 μM; for Late apoptosis, flow cytometry / Early apoptosis, flow cytometry: CRBN-/-; for total apoptosis, flow cytometry: MOLM-13 CRBN-/-. On the procedure: Wild type and CRBN^−/− MOLM-13 cells were grown in 12-well plates (TPP, Techno Plastic Products AG) with 500,000 cells per well in 2 ml total media volume. Cells were treated with 1 μl/ml DMSO or 1 μM compound in triplicate, and incubated for 24 or 72 h at 37 °C. To prepare samples, this buffer was used: 10 mM HEPES, 0.14 M NaCl, 2.5 mM CaCl2 pH 7.4, 2% v/v FBS in UltraPure water (Invitrogen). After incubation, samples were collected in 5-ml tubes for flow cytometry (Falcon). Single-stain controls consisted of ~150 μl of multiple samples combined. Wells were washed with 1 ml of buffer that was added to the corresponding sample tube. Cells were centrifuged at 500×g for 5 min at 4 °C to form a pellet. Supernatant was decanted and cells were washed again with 3 ml of buffer, then centrifuged. After decanting the supernatant, 3 μl of APC-conjugated anti-Annexin-V antibody (BioLegend) was added to each tube in the residual buffer left behind. Samples were mixed by vortex and incubated at room temperature in the dark for 20 min. Samples were then washed and centrifuged a final time, decanting the supernatant and blotting the tubes to remove residual buffer. 50 μl of buffer with DAPI was added to all appropriate samples and mixed, then analyzed by flow cytometry.
Supplementary Fig. 13: Gating for Annexin V flow cytometry analysis. Total cells were gated to remove cell debris, followed by single cell gating on the FSC-A/FSC-H diagonal. Within the single […]
Live cells are negative for both fluorescent markers, DAPI positive/APC negative cells are necrotic, APC positive/DAPI negative cells are still alive but in the early stages of apoptosis, and double positive cells are dead via apoptosis. Percentages of early and late apoptosis were plotted in supplementary figures 4 and 5.
(1 picture or pasted object on this page, not shown here)

Another assay addresses CK1α (Homo sapiens, UniProt P48729+Q96SW2). The assay is described as follows: CK1α immunoblotting in MOLM-13 cells. In kind it is cell-based. Set-up: immunoblot analysis of CK1α in MOLM-13 cells following treatment with increasing concentrations of SJ7095 over 4 h; endogenous in cells; host or cells: MOLM-13 (DSMZ ACC 554). Conditions: for Dmax: read-out: CK1α Dmax (immunoblot); for CK1a western blot quantification: CK1a data from blots in fig 2b. On the procedure: Frozen pellets of ~1 million cells were lysed in 150 µl of SDS lysis buffer (60 mM Tris/HCl pH 7, 10% glycerol, 2% SDS, 5% beta-mercaptoethanol, 0.02% bromophenol blue, 0.5% protease and phosphatase inhibitor cocktail (Sigma Aldrich)). When cells were resuspended, samples were heated for 3 min at 99 °C then put on ice. Samples were then fragmented by sonication for 10 0.5-s pulses (550 Sonic Dismembrator, Fisher Scientific) and heated again at 99 °C for 2 min. 15 μl of each sample was added to the wells of a 4–20% polyacrylamide gel (Bio-Rad). A mixture of 2 μl of Precision Plus Protein Unstained Standards and 2 μl of Precision Plus Protein All Blue Standards (Bio-Rad) was used for the size marker. After electrophoresis, gels were transferred to nitrocellulose membrane using the Bio-Rad Trans-Blot Turbo system on the mixed molecular weight setting. Membranes were blocked for 1 h in Li-Cor Intercept Blocking Buffer then probed overnight at 4 °C with primary antibody, at 1:1000 dilution or 1:2000 dilution for actin, in Li-Cor Intercept Antibody Diluent. The following morning, membranes were washed three times for 5 min with TBS + 0.05% Tween-20, probed with fluorescent secondary antibodies (goat anti-rabbit IRDye 800CW and goat anti-mouse IRDye 680RD, Li-Cor) for 1 h at room temperature in the dark at 1:10,000 dilution, and washed again 3 times. Blots were imaged with the Li-Cor Odyssey CLx and analyzed using Image Studio Version 5.2.
(A western blot detects proteins with antibodies after separation by electrophoresis.)

Where [1] appears, read: Jurkat, 0.111 uM, read-out: IKZF1 Percent Maximum Degradation.
[2] abbreviates: Jurkat, 10 µM, over 24 h, read-out: IKZF1 Dmax (HiBiT).
The mark [3] stands for this setting: SI_Fig 4c, DMSO 10.2, 11.1, 11.2.
Setting [4] is: MOLM-13, 4 h, read-out: CK1α DC50 (immunoblot).
The mark [5] stands for this setting: time course 0-8 hrs, relative to no treatment.
[6] abbreviates: western blot quantification, relative to DMSO.

The structures appear in SMILES notation. “And” between values parts separate entries of the source, which are not always exact repeats. Identical values can stand only once. Like-named read-outs stand apart in the source and are kept apart here. Bounds are passed on as bounds.

T1 sequence (Q13422 whole entry): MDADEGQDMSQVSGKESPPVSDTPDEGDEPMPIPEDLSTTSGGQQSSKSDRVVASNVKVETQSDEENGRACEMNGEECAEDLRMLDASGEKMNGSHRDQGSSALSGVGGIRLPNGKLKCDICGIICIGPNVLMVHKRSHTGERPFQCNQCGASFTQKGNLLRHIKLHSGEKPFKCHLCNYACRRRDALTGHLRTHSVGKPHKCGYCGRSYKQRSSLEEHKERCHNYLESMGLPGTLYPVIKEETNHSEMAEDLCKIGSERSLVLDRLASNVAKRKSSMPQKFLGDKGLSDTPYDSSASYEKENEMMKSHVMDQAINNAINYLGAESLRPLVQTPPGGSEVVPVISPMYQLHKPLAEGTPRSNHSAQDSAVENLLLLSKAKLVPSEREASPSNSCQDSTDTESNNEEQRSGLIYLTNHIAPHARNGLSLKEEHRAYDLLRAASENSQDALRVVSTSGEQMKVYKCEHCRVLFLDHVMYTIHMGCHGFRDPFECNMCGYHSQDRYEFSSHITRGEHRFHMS
T1 sequence (Q96SW2 whole entry): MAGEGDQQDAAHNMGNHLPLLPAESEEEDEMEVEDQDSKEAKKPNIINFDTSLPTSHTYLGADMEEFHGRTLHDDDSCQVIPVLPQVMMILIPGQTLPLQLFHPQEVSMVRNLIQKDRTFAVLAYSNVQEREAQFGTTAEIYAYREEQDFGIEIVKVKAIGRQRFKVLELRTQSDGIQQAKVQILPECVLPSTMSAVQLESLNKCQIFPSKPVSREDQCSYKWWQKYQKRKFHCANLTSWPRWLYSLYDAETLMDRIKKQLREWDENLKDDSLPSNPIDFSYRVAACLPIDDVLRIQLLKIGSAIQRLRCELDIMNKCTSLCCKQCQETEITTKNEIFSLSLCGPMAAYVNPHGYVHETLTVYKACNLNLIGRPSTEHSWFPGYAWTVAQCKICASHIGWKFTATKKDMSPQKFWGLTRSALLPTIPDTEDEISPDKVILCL
T1 sequence (Q16531 whole entry partner): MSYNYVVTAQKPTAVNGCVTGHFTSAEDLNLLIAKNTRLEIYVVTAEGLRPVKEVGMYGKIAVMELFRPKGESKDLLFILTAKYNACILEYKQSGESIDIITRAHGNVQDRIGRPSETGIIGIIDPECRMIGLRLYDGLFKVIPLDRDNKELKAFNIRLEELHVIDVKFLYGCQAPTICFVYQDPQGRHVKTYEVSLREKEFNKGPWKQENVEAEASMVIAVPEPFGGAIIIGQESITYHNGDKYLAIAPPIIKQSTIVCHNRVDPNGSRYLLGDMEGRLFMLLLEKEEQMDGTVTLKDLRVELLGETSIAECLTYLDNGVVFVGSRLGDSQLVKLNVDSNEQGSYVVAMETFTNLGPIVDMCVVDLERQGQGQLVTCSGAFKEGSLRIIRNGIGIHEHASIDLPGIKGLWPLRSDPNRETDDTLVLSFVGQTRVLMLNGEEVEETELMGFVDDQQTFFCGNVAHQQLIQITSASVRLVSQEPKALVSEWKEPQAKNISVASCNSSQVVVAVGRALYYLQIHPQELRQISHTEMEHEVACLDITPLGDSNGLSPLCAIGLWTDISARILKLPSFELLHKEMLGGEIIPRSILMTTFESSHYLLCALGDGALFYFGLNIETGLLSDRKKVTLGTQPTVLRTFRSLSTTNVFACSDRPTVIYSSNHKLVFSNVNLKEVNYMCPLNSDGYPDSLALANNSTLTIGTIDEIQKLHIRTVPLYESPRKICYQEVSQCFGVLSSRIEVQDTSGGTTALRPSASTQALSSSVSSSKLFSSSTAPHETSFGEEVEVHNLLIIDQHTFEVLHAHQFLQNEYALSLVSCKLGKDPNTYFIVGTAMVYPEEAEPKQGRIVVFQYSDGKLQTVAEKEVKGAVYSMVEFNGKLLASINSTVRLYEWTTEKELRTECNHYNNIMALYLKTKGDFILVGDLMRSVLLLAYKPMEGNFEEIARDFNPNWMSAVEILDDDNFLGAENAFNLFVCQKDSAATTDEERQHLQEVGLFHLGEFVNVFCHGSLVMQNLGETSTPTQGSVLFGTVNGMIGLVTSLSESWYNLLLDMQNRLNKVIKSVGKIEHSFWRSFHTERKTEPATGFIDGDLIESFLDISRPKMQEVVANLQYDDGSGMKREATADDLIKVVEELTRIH
Sequence of CK1α (P48729 whole entry, the tested form may be a part): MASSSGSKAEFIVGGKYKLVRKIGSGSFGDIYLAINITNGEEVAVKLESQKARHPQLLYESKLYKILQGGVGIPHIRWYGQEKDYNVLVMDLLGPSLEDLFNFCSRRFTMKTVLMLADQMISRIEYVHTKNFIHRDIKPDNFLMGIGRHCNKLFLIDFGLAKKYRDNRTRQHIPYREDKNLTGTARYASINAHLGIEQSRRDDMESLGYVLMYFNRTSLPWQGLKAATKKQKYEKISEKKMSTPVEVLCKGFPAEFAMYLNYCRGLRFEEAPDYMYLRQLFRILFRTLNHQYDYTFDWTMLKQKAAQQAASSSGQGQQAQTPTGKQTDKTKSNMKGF
Sequence of CK1α (Q96SW2 whole entry, the tested form may be a part): as the sequence (Q96SW2 whole entry) above
Sequence of CK1α (Q16531 whole entry partner, the tested form may be a part): as the sequence (Q16531 whole entry partner) above

With `Cc1cccc(C(=O)Nc2ccc3c(c2)CN(C2CCC(=O)NC2=O)C3=O)c1` (stereo not drawn) [SJ0040], the “IKZF1 Percent Maximum Degradation” value on IKZF1 (10 uM, replicates, listed as SJ10040) is -2.54% and -2.18% and 5.17% and -2.35%. The Dmax at 0.111 µM on IKZF1 (setting [1]) was 0%. Besides, the Dmax at 10 µM on IKZF1 (setting [2]) is < 10%. Further, in the assay with CRBN−/− MOLM-13 cells, the “Effect on viability of CRBN−/− cells (annexin-V)” value (“Effect on viability” for short) is reported as “no effect on the viability”. The “Late apoptosis, flow cytometry” value in the assay on CRBN−/− MOLM-13 cells (SI_Fig 4b, DMSO 3.1, 3.5, 3.3) is 3.1 and 2.5 and 2.8; in the assay with CRBN−/− MOLM-13 cells (SI_Fig 5b, DMSO 1.3, 1.9, 2), 2 and 1.5 and 1.3. For the same compound, the “Early apoptosis, flow cytometry” value in the assay on CRBN−/− MOLM-13 cells (SI_Fig 4b, DMSO 7.1, 7.5, 7.8) was 7.6 and 5.6 and 6; with CRBN−/− MOLM-13 cells (SI_Fig 5b, DMSO 4.6, 5.9, 7.6), 5.5 and 5.1 and 4.5. Moreover, the “total apoptosis, flow cytometry” value in the assay on CRBN−/− MOLM-13 cells (setting [3]) is 10.6 and 8.1 and 8.8; in the assay on CRBN−/− MOLM-13 cells (SI_Fig 5c, DMSO 5.8, 7.8, 9.6), 7.5 and 6.5 and 5.9. Moreover, the DC50 on CK1α (setting [4]) was determined as 11 nM. For the same compound, at CK1α (MOLM-13, 4 h), the Dmax amounted to 88%.
For `O=C1CCC(N2Cc3cc(Nc4noc5ccccc45)ccc3C2=O)C(=O)N1` (stereo not drawn) [SJ3149], at IKZF1 (10 uM, replicates), the “IKZF1 Percent Maximum Degradation” value is 11.66% and -2.50% and 4.13% and 1.42%. At IKZF1 (setting [2]), the Dmax at 10 µM is < 10%. The “Effect on viability” value with CRBN−/− MOLM-13 cells is “no effect on the viability”. Also, the “Late apoptosis, flow cytometry” value in the assay on CRBN−/− MOLM-13 cells (SI_Fig 4b, DMSO 3.1, 3.5, 3.3) was 2.9 and 2.8 and 2.6; in the assay on CRBN−/− MOLM-13 cells (SI_Fig 5b, DMSO 1.3, 1.9, 2), 2.1 and 1.7 and 2.2. The “Early apoptosis, flow cytometry” value was 8.1 and 7.5 and 5.1 in the assay with CRBN−/− MOLM-13 cells (SI_Fig 4b, DMSO 7.1, 7.5, 7.8); 6.7 and 6.2 and 6.6 with CRBN−/− MOLM-13 cells (SI_Fig 5b, DMSO 4.6, 5.9, 7.6). Further, the “total apoptosis, flow cytometry” value was 10.9 and 10.4 and 7.6 in the assay with CRBN−/− MOLM-13 cells (setting [3]); 8.8 and 7.9 and 8.7 in the assay with CRBN−/− MOLM-13 cells (SI_Fig 5c, DMSO 5.8, 7.8, 9.6). On CK1α (MOLM-13, 1 μM, 0-8 h), the “CK1α protein, time course” value is on record as “near complete loss of CK1α protein by 1 h”. Besides, the DC50 on CK1α (setting [4]) was 3.7 nM and 4 nM; on CK1α (western blot quantification, blots in fig 2b, read-out: IC50 (sigmoidal 4PL fit) of CK1a protein level), 3.75 nM. In addition, the Dmax at CK1α (MOLM-13, 4 h) was determined as 95%. The “CK1a western blot quantification” value at CK1α (SJ3149 0.001 uM, relative to DMSO) was 0.9925 and 0.9819 and 0.7065; at CK1α (SJ3149 0.01 uM, relative to DMSO), 0.3125 and 0.2648 and 0.1727; at CK1α (SJ3149 0.1 uM, relative to DMSO), 0.1087 and 0.1074 and 0.06013. In addition, the “CK1a quantified protein expression (western blot)” value on CK1α (time 8 hrs, relative to no treatment, 3 western blots) was 0.0615 and 0.09529 and 0.04877. Moreover, the “IC50 (line fit, sigmoidal 4PL) of CK1a expression versus time” value on CK1α (time course 0-8 hrs, X axis is time) was found to be 0.403. Besides, the “Bottom (line fit, sigmoidal 4PL) of CK1a expression versus time” value on CK1α (setting [5]) is 0.04517. Moreover, the “Top (line fit, sigmoidal 4PL) of CK1a expression versus time” value at CK1α (setting [5]) is listed as 0.8089. Moreover, on CK1α (setting [6]), the “Bottom (sigmoidal 4PL fit) of CK1a protein level” value was found to be 0.07909. Moreover, the “Top (sigmoidal 4PL fit) of CK1a protein level” value on CK1α (setting [6]) was found to be 1.004.
On to `O=C1CCC(N2Cc3c(CNC(=O)c4ccc(F)cc4)cccc3C2=O)C(=O)N1` (stereo not drawn) [SJ7095], for which the “IKZF1 Percent Maximum Degradation” value at IKZF1 (0.111 uM) was 51.56% and 53.98% and 57.51%; at IKZF1 (0.333 uM), 65.57% and 67.60% and 69.65%; on IKZF1 (1 uM), 74.04% and 75.26% and 77.24%; at IKZF1 (3 uM), 79.22% and 78.05% and 80.15%; at IKZF1 (10 uM, replicates), 80.57% and 81.85% and 92.17%. The Dmax at 0.111 µM on IKZF1 (setting [1]) came out at 51.7%. In addition, the Dmax at 0.333 µM at IKZF1 (Jurkat, 0.333 uM, read-out: IKZF1 Percent Maximum Degradation) amounted to 64.8%. In addition, at IKZF1 (Jurkat, 1 uM, read-out: IKZF1 Percent Maximum Degradation), the Dmax at 1 µM amounted to 73.8%. Moreover, the Dmax at 3 µM on IKZF1 (Jurkat, 3 uM, read-out: IKZF1 Percent Maximum Degradation) was 78.4%. For the same compound, the Dmax at 10 µM on IKZF1 (Jurkat, 10 uM, replicates, read-out: IKZF1 Percent Maximum Degradation) was found to be 80%. Further, the DC50 stood at 69 nM at IKZF1 (Jurkat, at 4 h) and 15 nM at CK1α (setting [4]). For the same compound, in the assay on CRBN−/− MOLM-13 cells, the “Effect on viability” value was “no effect on the viability”. Further, the “Late apoptosis, flow cytometry” value in the assay with CRBN−/− MOLM-13 cells (SI_Fig 4b, DMSO 3.1, 3.5, 3.3) is 2.7 and 3 and 3.2; with CRBN−/− MOLM-13 cells (SI_Fig 5b, DMSO 1.3, 1.9, 2), 1.7 and 2.1 and 1.9. Moreover, the “Early apoptosis, flow cytometry” value with CRBN−/− MOLM-13 cells (SI_Fig 4b, DMSO 7.1, 7.5, 7.8) was 6.9 and 8.1 and 7; in the assay with CRBN−/− MOLM-13 cells (SI_Fig 5b, DMSO 4.6, 5.9, 7.6), 6.5 and 6.7 and 7.2. Further, the “total apoptosis, flow cytometry” value was 9.6 and 11.1 and 10.2 in the assay with CRBN−/− MOLM-13 cells (setting [3]); 8.2 and 8.8 and 9.1 with CRBN−/− MOLM-13 cells (SI_Fig 5c, DMSO 5.8, 7.8, 9.6). Moreover, the CK1α degradation entry on CK1α (MOLM-13, 100 nM, 4 h) is recorded as “near complete degradation of CK1α”.
